Results from ChEMBL document CHEMBL1201862, “PubChem BioAssay data set” (2004).
Active and inactive are the calls of the source.

Experiments:
[1] = molecular target: T1, Replicative DNA helicase DnaB (Mycobacterium tuberculosis, UniProt P9WMR3); assay: DnaB intein splicing inhibitors, dose response, biochemical, cell-free fluorescence (AID 449749); assay type: functional
T1 sequence (P9WMR3 whole entry): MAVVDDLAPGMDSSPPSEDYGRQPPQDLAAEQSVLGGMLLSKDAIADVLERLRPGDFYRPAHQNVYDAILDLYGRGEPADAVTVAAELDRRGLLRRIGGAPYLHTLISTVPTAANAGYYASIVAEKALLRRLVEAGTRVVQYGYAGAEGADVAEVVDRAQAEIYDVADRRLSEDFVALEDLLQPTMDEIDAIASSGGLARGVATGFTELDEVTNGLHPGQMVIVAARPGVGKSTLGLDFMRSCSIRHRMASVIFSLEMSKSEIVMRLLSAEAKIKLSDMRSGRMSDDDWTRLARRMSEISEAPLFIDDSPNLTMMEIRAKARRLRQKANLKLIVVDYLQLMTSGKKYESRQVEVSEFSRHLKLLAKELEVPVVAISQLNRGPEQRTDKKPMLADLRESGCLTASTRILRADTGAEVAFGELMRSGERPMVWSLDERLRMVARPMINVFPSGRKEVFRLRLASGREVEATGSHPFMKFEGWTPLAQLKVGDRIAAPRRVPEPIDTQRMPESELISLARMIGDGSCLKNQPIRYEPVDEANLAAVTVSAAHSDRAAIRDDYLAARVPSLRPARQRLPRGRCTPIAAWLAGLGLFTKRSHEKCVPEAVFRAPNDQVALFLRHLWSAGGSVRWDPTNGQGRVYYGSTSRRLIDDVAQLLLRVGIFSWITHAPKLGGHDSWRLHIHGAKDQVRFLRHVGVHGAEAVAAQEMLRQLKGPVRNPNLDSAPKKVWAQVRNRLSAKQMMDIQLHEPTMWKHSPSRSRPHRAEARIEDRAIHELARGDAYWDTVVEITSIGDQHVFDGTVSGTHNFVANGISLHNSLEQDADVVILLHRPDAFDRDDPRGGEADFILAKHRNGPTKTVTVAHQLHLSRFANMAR

Streptokinase A = molecular target: T2, Streptokinase A (Streptococcus pyogenes serotype M1, UniProt P10520); assay: viability-normalized secreted streptokinase activity reduction – plasminogen activation absorbance, OD405, dose response (AID 1914); assay type: functional, Streptococcus pyogenes M1 GAS;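 further: secreted streptokinase activity via plasminogen activation per viability signal from cell pellet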
T2 sequence (P10520 whole entry): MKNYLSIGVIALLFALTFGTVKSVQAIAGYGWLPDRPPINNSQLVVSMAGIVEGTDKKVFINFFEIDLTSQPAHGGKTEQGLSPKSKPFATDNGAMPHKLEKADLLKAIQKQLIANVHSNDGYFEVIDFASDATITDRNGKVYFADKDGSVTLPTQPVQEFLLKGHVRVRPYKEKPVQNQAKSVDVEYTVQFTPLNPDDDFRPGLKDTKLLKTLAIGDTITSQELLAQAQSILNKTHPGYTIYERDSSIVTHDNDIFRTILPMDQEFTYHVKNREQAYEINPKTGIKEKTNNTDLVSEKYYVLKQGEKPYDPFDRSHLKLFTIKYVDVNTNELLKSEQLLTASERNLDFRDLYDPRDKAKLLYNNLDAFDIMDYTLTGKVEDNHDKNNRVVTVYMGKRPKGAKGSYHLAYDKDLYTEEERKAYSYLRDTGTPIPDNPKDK

[2] = molecular target: T3, Sentrin-specific protease 6 (Homo sapiens, UniProt Q9GZR1); assay type: functional;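 further: Luminescence-based dose-response confirmatory assay of SENP6 inhibition, following up an ultra-high-throughput screen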
T3 sequence (Q9GZR1 whole entry): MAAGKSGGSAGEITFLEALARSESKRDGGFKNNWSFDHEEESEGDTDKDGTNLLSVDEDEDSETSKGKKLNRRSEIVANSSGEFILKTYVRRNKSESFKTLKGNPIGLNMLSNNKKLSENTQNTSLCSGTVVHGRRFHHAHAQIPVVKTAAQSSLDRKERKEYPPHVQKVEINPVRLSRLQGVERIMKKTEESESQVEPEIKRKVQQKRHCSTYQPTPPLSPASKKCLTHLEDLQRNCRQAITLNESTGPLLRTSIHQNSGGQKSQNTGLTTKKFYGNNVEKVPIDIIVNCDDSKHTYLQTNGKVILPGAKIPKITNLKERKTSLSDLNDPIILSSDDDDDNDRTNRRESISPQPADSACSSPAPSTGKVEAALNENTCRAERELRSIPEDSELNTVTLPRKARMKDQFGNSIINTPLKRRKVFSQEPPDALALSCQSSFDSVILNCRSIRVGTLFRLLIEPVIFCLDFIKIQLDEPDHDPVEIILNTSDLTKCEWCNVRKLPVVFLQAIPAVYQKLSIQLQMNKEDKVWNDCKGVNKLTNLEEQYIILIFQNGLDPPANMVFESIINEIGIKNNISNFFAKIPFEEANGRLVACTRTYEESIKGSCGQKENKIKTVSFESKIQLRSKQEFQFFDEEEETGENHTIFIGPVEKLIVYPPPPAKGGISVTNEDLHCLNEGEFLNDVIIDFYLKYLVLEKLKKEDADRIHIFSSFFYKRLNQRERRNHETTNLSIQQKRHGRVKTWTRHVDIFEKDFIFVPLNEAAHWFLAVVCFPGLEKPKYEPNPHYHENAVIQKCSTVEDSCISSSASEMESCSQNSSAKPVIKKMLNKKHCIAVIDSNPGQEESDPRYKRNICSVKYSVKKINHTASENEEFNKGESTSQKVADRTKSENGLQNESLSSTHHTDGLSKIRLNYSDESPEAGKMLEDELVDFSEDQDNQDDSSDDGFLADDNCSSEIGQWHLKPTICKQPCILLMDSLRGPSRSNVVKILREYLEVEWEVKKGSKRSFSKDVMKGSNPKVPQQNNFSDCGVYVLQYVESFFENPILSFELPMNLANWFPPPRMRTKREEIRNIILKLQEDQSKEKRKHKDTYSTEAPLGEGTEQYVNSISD

SMILES	AC50 [1]	EC50 (Streptokinase A)	IC50 [2]
CCC1CCCCN1S(=O)(=O)c1ccc(NC(=O)c2nc(S(C)(=O)=O)ncc2Cl)cc1 (stereo unspecified)	1.43 µM (active)	0.66 µM (active)	
CCCC[n+]1ccn(C2=C([N-]S(=O)(=O)c3ccc(Cl)cc3)C(=O)c3ccccc3C2=O)c1			12.4 µM (active)
CC(=O)c1cccc2c1N=C(c1[nH]c3ccccc3c1O)C2=O	3.1 µM (active)	116 µM (active)	13.2 µM (active)
